Measurements from patent publication US11053204B2, “Pyrimidinyloxy benzene derivatives as herbicides” (FMC Corporation, priority 2015, dated 2021).

Tests used:
Format in all cases: in vivo
[1] = test system: galium (catchweed bedstraw, Galium aparine); test: Test A postemergence, visual injury rating; conditions: 0 is no effect, 100 is complete control; for Galium plant response rating: 0 to 100 scale, approximately 10 days
Procedure, shortened: (§1)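 Pre- and postemergence greenhouse screen. Soil: loam + sand. Spray carrier: solvent mixture, non-phytotoxic, with surfactant. Post timing at 1–2 leaves, height 2–10 cm. Readout: visual injury on a 0–100 scale roughly 10 days after application, untreated plants as reference.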

[2] = test system: blackgrass (Alopecurus myosuroides); test: Test A postemergence, visual injury rating; conditions: 0 is no effect, 100 is complete control; for Blackgrass plant response rating: 0 to 100 scale, approximately 10 days
Procedure, shortened: as §1

[3] = test system: Italian ryegrass (Lolium multiflorum); test: Test A postemergence, visual injury rating; conditions: 0 is no effect, 100 is complete control; for Ryegrass, Italian plant response rating: 0 to 100 scale, approximately 10 days
Procedure, shortened: as §1

kochia (Kochia scoparia) = test: Test A postemergence, visual injury rating; conditions: 0 is no effect, 100 is complete control; for Kochia plant response rating: 0 to 100 scale, approximately 10 days
Procedure, shortened: as §1

[4] = test system: giant foxtail (Setaria faberii); test: Test A postemergence, visual injury rating; conditions: 0 is no effect, 100 is complete control; for Foxtail, Giant plant response rating: 0 to 100 scale, approximately 10 days
Procedure, shortened: as §1

[5] = test system: ragweed (common ragweed, Ambrosia elatior); test: Test A postemergence, visual injury rating; conditions: 0 is no effect, 100 is complete control; for Ragweed plant response rating: 0 to 100 scale, approximately 10 days
Procedure, shortened: as §1

[6] = test system: barnyardgrass (Echinochloa crus-galli); test: Test A postemergence, visual injury rating; conditions: 0 is no effect, 100 is complete control; for Barnyardgrass plant response rating: 0 to 100 scale, approximately 10 days
Procedure, shortened: as §1

corn (Zea mays) = test: Test A postemergence, visual injury rating; conditions: 0 is no effect, 100 is complete control; for Corn plant response rating: 0 to 100 scale, approximately 10 days
Procedure, shortened: as §1

[7] = test system: wheat (Triticum aestivum); test: Test A postemergence, visual injury rating; conditions: 0 is no effect, 100 is complete control; for Wheat plant response rating: 0 to 100 scale, approximately 10 days
Procedure, shortened: as §1

[8] = test system: pigweed (Amaranthus retroflexus); test: Test A postemergence, visual injury rating; conditions: 0 is no effect, 100 is complete control; for Pigweed plant response rating: 0 to 100 scale, approximately 10 days
Procedure, shortened: as §1

[9] = test system: johnsongrass (Sorghum halepense); test: Test C postemergence, plant response rating; conditions: for Plant response rating, Johnsongrass: scale 0 to 100; for Johnsongrass plant response rating: scale 0 to 100 (0 no effect, 100 complete control)
Procedure, shortened: (§2)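 Pre-emergence: seeds sown in loam soil–sand blend or silt loam and sprayed with test chemicals in a non-phytotoxic solvent mixture with surfactant. Post-emergence: plants 2 to 18 cm (1- to 4-leaf stage) in peat-based potting medium, same formulation. Greenhouse 13 to 15 d; visual rating 0 (no effect) to 100 (complete control) versus controls.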

[10] = test system: pigweed (Amaranthus retroflexus); test: Test C postemergence, plant response rating
Procedure, shortened: as §2

[11] = test system: ducksalad (Heteranthera limosa); test: Test B flooded paddy test, plant response rating; conditions: 250 g ai/ha; Flood; scale of 0 to 100 where 0 is no effect and 100 is complete control; 13 to 15 days
Procedure, shortened: (§3)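 Under a constant 3 cm flood, test compounds went directly into the paddy water. Following 13 to 15 days of greenhouse growth, treated species and controls were compared by eye.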

[12] = test system: sedge, umbrella (small-flower umbrella sedge, Cyperus difformis); test: Test B flooded paddy test, plant response rating; conditions: 250 g ai/ha; Flood; scale of 0 to 100 where 0 is no effect and 100 is complete control; 13 to 15 days
Procedure, shortened: as §3

rice (Oryza sativa) = test: Test B flooded paddy test, plant response rating; conditions: 250 g ai/ha; Flood; scale of 0 to 100 where 0 is no effect and 100 is complete control; 13 to 15 days
Procedure, shortened: as §3

[13] = test system: barnyardgrass (Echinochloa crus-galli); test: Test B flooded paddy test, plant response rating; conditions: 250 g ai/ha; Flood; scale of 0 to 100 where 0 is no effect and 100 is complete control; 13 to 15 days
Procedure, shortened: as §3

[14] = 62 g ai/ha, scale 0 to 100 (0 no effect, 100 complete control)
[15] = 125 g ai/ha, scale 0 to 100 (0 no effect, 100 complete control)

Structure (SMILES): N#Cc1cccc(Oc2ncc(Cl)cn2)c1CCCC(F)(F)F [Compound 72]
- Galium plant response rating (0 to 100 scale) ([1]; 125 g ai/ha): 80
- Galium plant response rating (0 to 100 scale) ([1]; 500 g ai/ha): 100
- Blackgrass plant response rating (0 to 100 scale) ([2]; 125 g ai/ha): 30
- Blackgrass plant response rating (0 to 100 scale) ([2]; 500 g ai/ha): 50
- Ryegrass, Italian plant response rating ([3]; 125 g ai/ha): 10
- Ryegrass, Italian plant response rating (0 to 100 scale) ([3]; 500 g ai/ha): 40
- Kochia plant response rating (kochia (Kochia scoparia); 125 g ai/ha): 100
- Kochia plant response rating (0 to 100 scale) (kochia (Kochia scoparia); 500 g ai/ha): 100
- Foxtail, Giant plant response rating (0 to 100 scale) ([4]; 125 g ai/ha): 70
- Foxtail, Giant plant response rating (0 to 100 scale) ([4]; 500 g ai/ha): 100
- Ragweed plant response rating ([5]; 125 g ai/ha): 10
- Ragweed plant response rating (0 to 100 scale) ([5]; 500 g ai/ha): 30
- Barnyardgrass plant response rating (0 to 100 scale) ([6]; 125 g ai/ha): 80
- Barnyardgrass plant response rating (0 to 100 scale) ([6]; 500 g ai/ha): 100
- Corn plant response rating (0 to 100 scale) (corn (Zea mays); 125 g ai/ha): 50
- Corn plant response rating (0 to 100 scale) (corn (Zea mays); 500 g ai/ha): 60
- Wheat plant response rating ([7]; 125 g ai/ha): 10
- Wheat plant response rating (0 to 100 scale) ([7]; 500 g ai/ha): 40
- Pigweed plant response rating ([8]; 125 g ai/ha): 100
- Pigweed plant response rating (0 to 100 scale) ([8]; 500 g ai/ha): 100
- Plant response rating, Johnsongrass ([9]; 16 g ai/ha): 5
- Plant response rating, Johnsongrass ([9]; 31 g ai/ha): 10
- Johnsongrass plant response rating ([9]; 62 g ai/ha): 10
- Johnsongrass plant response rating ([9]; 125 g ai/ha): 10
- Plant response rating, Pigweed ([10]; 16 g ai/ha, scale 0 to 100): 80
- Plant response rating, Pigweed ([10]; 31 g ai/ha, scale 0 to 100): 85
- Pigweed plant response rating [10, 14]: 85
- Pigweed plant response rating [10, 15]: 100

Structure (SMILES): N#Cc1cccc(Oc2ncc(Cl)cn2)c1CCCCC(F)(F)F [Compound 73, 3-[(5-chloro-2-pyrimidinyl)oxy]-2-(5,5,5-trifluoropentyl)benzonitrile]
- pest or weed control at 125 g/ha ([1]; Galium, post-emergence, 240 h, 125 g ai/ha, read-out: Galium plant response rating (0 to 100 scale)): 100%
- pest or weed control at 500 g/ha ([1]; Galium, post-emergence, 240 h, 500 g ai/ha, read-out: Galium plant response rating (0 to 100 scale)): 100%
- pest or weed control at 125 g/ha ([2]; Alopecurus myosuroides, post-emergence, 240 h, 125 g ai/ha, read-out: Blackgrass plant response rating (0 to 100 scale)): 50%
- pest or weed control at 500 g/ha ([2]; Alopecurus myosuroides, post-emergence, 240 h, 500 g ai/ha, read-out: Blackgrass plant response rating (0 to 100 scale)): 100%
- Ryegrass, Italian plant response rating ([3]; 125 g ai/ha): 80
- pest or weed control at 500 g/ha ([3]; Lolium multiflorum, post-emergence, 240 h, 500 g ai/ha, read-out: Ryegrass, Italian plant response rating (0 to 100 scale)): 100%
- Kochia plant response rating (kochia (Kochia scoparia); 125 g ai/ha): 100
- pest or weed control at 500 g/ha (kochia (Kochia scoparia); Bassia scoparia, post-emergence, 240 h, 500 g ai/ha, read-out: Kochia plant response rating (0 to 100 scale)): 100%
- pest or weed control at 125 g/ha ([4]; Setaria faberi, post-emergence, 240 h, 125 g ai/ha, read-out: Foxtail, Giant plant response rating (0 to 100 scale)): 100%
- pest or weed control at 500 g/ha ([4]; Setaria faberi, post-emergence, 240 h, 500 g ai/ha, read-out: Foxtail, Giant plant response rating (0 to 100 scale)): 100%
- Ragweed plant response rating ([5]; 125 g ai/ha): 20
- pest or weed control at 500 g/ha ([5]; Ambrosia artemisiifolia, post-emergence, 240 h, 500 g ai/ha, read-out: Ragweed plant response rating (0 to 100 scale)): 30%
- pest or weed control at 125 g/ha ([6]; Echinochloa crus-galli, post-emergence, 240 h, 125 g ai/ha, read-out: Barnyardgrass plant response rating (0 to 100 scale)): 90%
- pest or weed control at 500 g/ha ([6]; Echinochloa crus-galli, post-emergence, 240 h, 500 g ai/ha, read-out: Barnyardgrass plant response rating (0 to 100 scale)): 100%
- plant injury at 125 g/ha (corn (Zea mays); Zea mays, post-emergence, 240 h, 125 g ai/ha, read-out: Corn plant response rating (0 to 100 scale)): 30%
- plant injury at 500 g/ha (corn (Zea mays); Zea mays, post-emergence, 240 h, 500 g ai/ha, read-out: Corn plant response rating (0 to 100 scale)): 60%
- Wheat plant response rating ([7]; 125 g ai/ha): 20
- plant injury at 500 g/ha ([7]; Triticum aestivum, post-emergence, 240 h, 500 g ai/ha, read-out: Wheat plant response rating (0 to 100 scale)): 90%
- Pigweed plant response rating ([8]; 125 g ai/ha): 100
- pest or weed control at 500 g/ha ([8]; Amaranthus retroflexus, post-emergence, 240 h, 500 g ai/ha, read-out: Pigweed plant response rating (0 to 100 scale)): 100%
- Plant response rating, Johnsongrass ([9]; 16 g ai/ha): 5
- Plant response rating, Johnsongrass ([9]; 31 g ai/ha): 10
- Johnsongrass plant response rating ([9]; 62 g ai/ha): 20
- Johnsongrass plant response rating ([9]; 125 g ai/ha): 20
- pest or weed control at 16 g/ha ([10]; Amaranthus retroflexus, post-emergence, 16 g ai/ha, scale 0 to 100): 90%
- pest or weed control at 31 g/ha ([10]; Amaranthus retroflexus, post-emergence, 31 g ai/ha, scale 0 to 100): 85%
- pest or weed control at 62 g/ha ([10]; Amaranthus retroflexus, post-emergence, 62 g ai/ha, scale 0 to 100 (0 no effect, 100 complete control)): 100%
- pest or weed control at 125 g/ha ([10]; Amaranthus retroflexus, post-emergence, 125 g ai/ha, scale 0 to 100 (0 no effect, 100 complete control)): 100%

Structure (SMILES): O=C(CCC(F)(F)F)c1c(Br)cccc1Oc1ncc(Cl)cn1 [Compound 92]
- Galium plant response rating ([1]; 31 g ai/ha): 90
- Galium plant response rating ([1]; 125 g ai/ha): 100
- Blackgrass plant response rating ([2]; 31 g ai/ha): 10
- Blackgrass plant response rating ([2]; 125 g ai/ha): 50
- Ryegrass, Italian plant response rating ([3]; 31 g ai/ha): 0
- Ryegrass, Italian plant response rating ([3]; 125 g ai/ha): 50
- Kochia plant response rating (kochia (Kochia scoparia); 31 g ai/ha): 100
- Kochia plant response rating (kochia (Kochia scoparia); 125 g ai/ha): 100
- Foxtail, Giant plant response rating ([4]; 31 g ai/ha): 50
- Foxtail, Giant plant response rating ([4]; 125 g ai/ha): 100
- Ragweed plant response rating ([5]; 31 g ai/ha): 0
- Ragweed plant response rating ([5]; 125 g ai/ha): 20
- Barnyardgrass plant response rating ([6]; 31 g ai/ha): 40
- Barnyardgrass plant response rating ([6]; 125 g ai/ha): 100
- Corn plant response rating (corn (Zea mays); 31 g ai/ha): 10
- Corn plant response rating (corn (Zea mays); 125 g ai/ha): 40
- Wheat plant response rating ([7]; 31 g ai/ha): 0
- Wheat plant response rating ([7]; 125 g ai/ha): 20
- Pigweed plant response rating ([8]; 31 g ai/ha): 100
- Pigweed plant response rating ([8]; 125 g ai/ha): 100
- Plant response rating, Ducksalad [11]: 100
- Plant response rating, Sedge, Umbrella [12]: 100
- Plant response rating, Rice (rice (Oryza sativa)): 0
- Plant response rating, Barnyardgrass [13]: 25
- Plant response rating, Pigweed ([10]; 16 g ai/ha, scale of 0 to 100): 85
- Plant response rating, Pigweed ([10]; 31 g ai/ha, scale 0 to 100): 90
- Pigweed plant response rating [10, 14]: 98
- Pigweed plant response rating [10, 15]: 100
